The values below are quoted from earlier work in patent US4344438A, “Optical sensor of plasma constituents” (The United States of America as represented by the …, priority 1980, dated 1982).

The target of this data set is Concanavalin-A (Con-A). As to conditions: from So and Goldstein, Biochem., Biophys. Acta 165, 398 (1968); read-out: Binding constant K of sugar to Concanavalin-A.
For the molecule `OC[C@H]1O[C@H](O[C@H]2[C@H](O)[C@@H](O)C(O)O[C@@H]2CO)[C@H](O)[C@@H](O)[C@@H]1O` (mixture of isomers) [Maltose], the Kd is 350 µM.

For the molecule `O=C(CO)[C@@H](O)[C@H](O)[C@H](O)CO` [Fructose], the Kd was 730 µM. Turning to `OC[C@H]1O[C@H](OC[C@H]2OC(O)[C@H](O)[C@@H](O)[C@@H]2O)[C@H](O)[C@@H](O)[C@@H]1O` (some centres unmarked) [Isomaltose], the Kd was 180 µM. On to `OC[C@H]1O[C@@](CO)(O[C@H]2O[C@H](CO)[C@@H](O)[C@H](O)[C@H]2O)[C@@H](O)[C@@H]1O` [Sucrose], for which the Kd was 1900 µM. On to `O=[N+]([O-])c1ccc(O[C@H]2O[C@H](CO)[C@@H](O)[C@H](O)[C@@H]2O)cc1` [p-nitrophenol-α-D mannopyranoside], for which the Kd was 29.4 µM.
